As a reminder, the inhibition is the drop in the measured response relative to a control, in per cent. A word on the IC50: it is the concentration needed to halve the response being measured.

Here are results for 26 compounds from ChEMBL document CHEMBL1126756, “Studies on neurokinin antagonists. 3. Design and structure-activity relationships of new branched tripeptides N alpha-(substituted L-aspartyl, L-ornithyl, or L-lysyl)-N-methyl-N-(phenylmethyl)-L-phenylalaninamides as substance P antagonists” (J Med Chem, 1993).

Activity calls are given as the source filed them. The rule behind the calls is not given here.

Assay [1] concerns the target Substance-P receptor (Cavia porcellus) (UniProt P30547). Description: Tested for percent inhibition against [3H]SP (substance P) binding against NK1 receptor relative to compound 5 (100). The following applies: concentration not given here.
Assay [2] shares this target. Description: Tested for percent inhibition against [3H]-SP (substance P) binding against NK1 receptor. The following applies: concentration not given here.
The target in the next assay is Substance-P receptor (Cavia porcellus, UniProt P30547). The experiment in a line: Tested for inhibition against [3H]-SP (substance P) (1 nM) binding to NK1 receptor in guinea pig lung membranes. Format: cell membranes, Membrane.
Sequence of Substance-P receptor (P30547 whole entry): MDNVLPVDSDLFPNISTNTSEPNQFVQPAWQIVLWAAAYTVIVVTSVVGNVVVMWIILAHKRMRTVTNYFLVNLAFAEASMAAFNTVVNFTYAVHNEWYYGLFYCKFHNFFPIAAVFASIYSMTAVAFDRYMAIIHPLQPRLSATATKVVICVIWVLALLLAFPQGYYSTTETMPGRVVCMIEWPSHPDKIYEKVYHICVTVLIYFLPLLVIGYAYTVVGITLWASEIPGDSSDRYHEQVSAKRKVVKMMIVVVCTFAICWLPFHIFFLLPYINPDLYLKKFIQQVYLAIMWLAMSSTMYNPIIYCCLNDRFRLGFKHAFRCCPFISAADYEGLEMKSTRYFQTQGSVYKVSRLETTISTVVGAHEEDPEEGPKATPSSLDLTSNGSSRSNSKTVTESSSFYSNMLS
The target of assay [3] is Substance-P receptor (Cavia porcellus) (UniProt P30547). Description: Tested for percent inhibition against [3H]-SP (substance P) binding against NK1 receptor relative to compound 5 at 100 ng/mL; No inhibition.
Sequence of Substance-P receptor (Cavia porcellus) (P30547 whole entry): as above
For assay [4] the target is unchanged. Description: Percent inhibition of [3H]-SP (substance P) binding to NK1 receptor relative to compound 7 (100). Also noted: concentration or dose not given beside the values. The note with it: concentration not given here.
The target is the same in assay [5]. The experiment in a line: Tested for percent inhibition against [3H]SP (substance P) binding against NK1 receptor relative to compound 7 at 100 ng/mL; No inhibition.
Assay [6] shares this target. The experiment in a line: Tested for percent inhibition against [3H]SP (substance P) binding against NK1 receptor relative to compound. The following applies: concentration not given here.

As to `CN(Cc1ccccc1)C(=O)[C@@H](Cc1ccccc1)NC(=O)C(CC(=O)NC(CCC(N)=O)C(N)=O)NC(=O)c1c[nH]c2ccccc12` (stereo partly drawn), the inhibition in assay [1] was determined as 56%.
On to `CC(=O)N[C@H](C(=O)NCCCC[C@H](NC(=O)c1c[nH]c2ccccc12)C(=O)N[C@H](Cc1ccccc1)C(=O)N(C)Cc1ccccc1)[C@@H](C)O`, for which the inhibition in assay [2] worked out at 100%. On Substance-P receptor, the 50% inhibitory concentration (IC50) turned out to be 0.013 µM.
Regarding `CC(O)C(NC(=O)CC(N)C(=O)N[C@H](Cc1ccccc1)C(=O)N(C)Cc1ccccc1)C(N)=O` (stereo partly drawn), the inhibition result in assay [3] is “inactive”.
Consider `CC(=O)NC(CO)C(=O)NCCCCC(NC(=O)c1c[nH]c2ccccc12)C(=O)N[C@H](Cc1ccccc1)C(=O)N(C)Cc1ccccc1` (stereo partly drawn), for which, in assay [4], the inhibition was determined as 136%.
With `CC(=O)NC(CCCCNC(=O)C(NC(C)=O)C(C)O)C(=O)N[C@H](Cc1ccccc1)C(=O)N(C)Cc1ccccc1` (stereo partly drawn), the inhibition result in assay [5] was “inactive”.
As to `CN(Cc1ccccc1)C(=O)[C@@H](Cc1ccccc1)NC(=O)C(CCCCNC(=O)N1CCOCC1)NC(=O)c1c[nH]c2ccccc12` (stereo partly drawn), the inhibition in assay [4] was 53%.
Take `CC(=O)NC(C(=O)NCCCCC(NC(=O)c1ccccc1)C(=O)N[C@H](Cc1ccccc1)C(=O)N(C)Cc1ccccc1)C(C)O` (stereo partly drawn): in assay [5], the inhibition entry is “inactive”.
On to `CN(Cc1ccccc1)C(=O)[C@@H](Cc1ccccc1)NC(=O)C(CCCCNC(=O)OCc1ccccc1)NC(=O)c1cc2ccccc2[nH]1` (stereo partly drawn), for which the inhibition in assay [4] was 22%.
`CC(=O)NC(C(=O)NCCCCC(NC(=O)OC(C)(C)C)C(=O)N[C@H](Cc1ccccc1)C(=O)N(C)Cc1ccccc1)C(C)O` (stereo partly drawn): the inhibition entry in assay [5] was “inactive”.
Turning to `CC(=O)NCCC(=O)NCCCCC(NC(=O)c1c[nH]c2ccccc12)C(=O)N[C@H](Cc1ccccc1)C(=O)N(C)Cc1ccccc1` (stereo partly drawn), the inhibition in assay [4] came out at 82%.
On to `CC(=O)NC(C(=O)NCCCC(NC(=O)c1c[nH]c2ccccc12)C(=O)N[C@H](Cc1ccccc1)C(=O)N(C)Cc1ccccc1)[C@@H](C)O` (stereo partly drawn), for which the 50% inhibitory concentration (IC50) on Substance-P receptor came to 0.021 µM.
Still for that read-out and setting: to `CC(=O)NC(C(=O)NCCCCC(NC(=O)c1cc2ccccc2[nH]1)C(=O)N[C@H](Cc1ccccc1)C(=O)N(C)Cc1ccccc1)[C@@H](C)O` (stereo partly drawn) belongs 0.019 µM.
`CN(Cc1ccccc1)C(=O)[C@@H](Cc1ccccc1)NC(=O)C(CCCCNC(=O)C(C)(C)C)NC(=O)c1c[nH]c2ccccc12` (stereo partly drawn): in assay [4], the inhibition was 44%.
`C[C@@H](O)C(NC(=O)CC(NC(=O)c1cc2ccccc2[nH]1)C(=O)N[C@H](Cc1ccccc1)C(=O)N(C)Cc1ccccc1)C(N)=O` (stereo partly drawn) displayed an IC50 on Substance-P receptor of 0.054 µM.
`CN(Cc1ccccc1)C(=O)[C@@H](Cc1ccccc1)NC(=O)C(CC(=O)NCC(N)=O)NC(=O)c1c[nH]c2ccccc12` (stereo partly drawn): the inhibition in assay [1] stood at 128%.
Consider `CN(Cc1ccccc1)C(=O)[C@@H](Cc1ccccc1)NC(=O)C(CCCCN)NC(=O)c1c[nH]c2ccccc12` (stereo partly drawn), for which the inhibition in assay [4] came out at 91%.
As for `C[C@@H](O)C(NC(=O)CC(NC(=O)c1c[nH]c2ccccc12)C(=O)N[C@H](Cc1ccccc1)C(=O)N(C)Cc1ccccc1)C(N)=O` (stereo partly drawn), in assay [6], the inhibition was 100%. The IC50 on Substance-P receptor was 0.023 µM.
Consider `CC(=O)NCCCCC(NC(=O)c1c[nH]c2ccccc12)C(=O)N[C@H](Cc1ccccc1)C(=O)N(C)Cc1ccccc1` (stereo partly drawn), for which, in assay [4], the inhibition amounted to 87%.
Consider `CC(=O)NC(C(=O)NCCCCC(N)C(=O)N[C@H](Cc1ccccc1)C(=O)N(C)Cc1ccccc1)C(C)O` (stereo partly drawn), for which, in assay [5], the inhibition result was “inactive”.
`CN(C)C(=O)NCCCCC(NC(=O)c1c[nH]c2ccccc12)C(=O)N[C@H](Cc1ccccc1)C(=O)N(C)Cc1ccccc1` (stereo partly drawn): the inhibition in assay [4] stood at 144%.
For `CN(Cc1ccccc1)C(=O)[C@@H](Cc1ccccc1)NC(=O)C(CC(=O)NC(CCC(N)=O)C(=O)NC(C)(C)C)NC(=O)c1c[nH]c2ccccc12` (stereo partly drawn), the inhibition in assay [1] is 96%.
On to `CC(=O)N[C@H](C(=O)NCCCC[C@@H](NC(=O)c1c[nH]c2ccccc12)C(=O)N[C@H](Cc1ccccc1)C(=O)N(C)Cc1ccccc1)[C@@H](C)O`, for which the inhibition entry in assay [5] was “inactive”.
For the compound `CC(O)C(NC(=O)OC(C)(C)C)C(=O)NCCCCC(NC(=O)c1c[nH]c2ccccc12)C(=O)N[C@H](Cc1ccccc1)C(=O)N(C)Cc1ccccc1` (stereo partly drawn), the inhibition in assay [4] is 98%.
Consider `CN(Cc1ccccc1)C(=O)[C@@H](Cc1ccccc1)NC(=O)C(CC(=O)NC(CO)C(N)=O)NC(=O)c1c[nH]c2ccccc12` (stereo partly drawn), for which, in assay [1], the inhibition was found to be 100%.
Turning to `CC(O)C(NC(=O)CC(NC(=O)OC(C)(C)C)C(=O)N[C@H](Cc1ccccc1)C(=O)N(C)Cc1ccccc1)C(N)=O` (stereo partly drawn), the inhibition entry in assay [3] is “inactive”.
For the compound `CC(=O)NCC(=O)NCCCCC(NC(=O)c1c[nH]c2ccccc12)C(=O)N[C@H](Cc1ccccc1)C(=O)N(C)Cc1ccccc1` (stereo partly drawn), the inhibition in assay [4] turned out to be 98%.
